Measurements reported in patent EP0429304A2, “Pyridone-carboxylic acid derivatives and their use as veterinary medicines” (SHIONOGI SEIYAKU KABUSHIKI KAISHA trading under the name of …, priority 1989, dated 1991).
Like-named read-outs stand apart in the source and are kept apart here.

Legend:
[1] = test system: TS-resistant strain of MG; assay type: in vivo, chicken; conditions: 10-days chicken, 1.2 x 10³ CFU/fowl; for Infectious index Left air sack + / Infectious index Left air sack ++ / Infectious index Left air sack +++ / Infectious index Left air sack - / Infectious index Right air sack + / Infectious index Right air sack ++ / Infectious index Right air sack +++ / Infectious index Right air sack -: count of fowl
[2] = test system: Mycoplasma hyopneumoniae (Mh) ST-11; experiment: In vitro sensitivity test (liquid dilution method); assay type: cell-based; conditions: 37°C, 7 days
[3] = test system: Mycoplasma gallisepticum (MG) T-7-T, TS-resistant strain isolated from the field; experiment: In vitro sensitivity test (liquid dilution method); assay type: cell-based; conditions: 37°C, 7 days
[4] = test system: Mycoplasma synoviae (MS) F10-2as; experiment: In vitro sensitivity test (liquid dilution method); assay type: cell-based; conditions: 37°C, 7 days
Method in brief: (§1)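 MS (liquid dilution): Frey medium + 12 % pig-serum + 0.01 % βNAD, 37°C, 7 days. S.au (agar dilution): Mueller Hinton agar, 37°C, 20 to 24 hours. P.pis: heart infusion agar + 1.5 % NaCl, 25°C, 40 to 48 hours. All strains animal-origin.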

[5] = test system: Mycoplasma gallisepticum (MG) S6; experiment: In vitro sensitivity test (liquid dilution method); assay type: cell-based; conditions: 37°C, 7 days
[6] = test system: Mycoplasma synoviae (MS) 1853; experiment: In vitro sensitivity test (liquid dilution method); assay type: cell-based; conditions: 37°C, 7 days
Method in brief: as §1

[7] = test system: Salmonella typhimurium (S.typhi) 13311; experiment: In vitro sensitivity test (agar dilution method); assay type: cell-based; conditions: 37°C, 20 to 24 hours
[8] = test system: Staphylococcus aureus (S.au) 209P; experiment: In vitro sensitivity test (agar dilution method); assay type: cell-based; conditions: 37°C, 20 to 24 hours
Method in brief: (§2)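 For the fish-origin P.pis strain this meant heart infusion agar supplemented with 1.5 % NaCl at 25°C for 40 to 48 hours. S.au plates used Mueller Hinton agar at 37°C for 20 to 24 hours. MS broths used Frey medium with 12 % pig-serum and 0.01 % βNAD at 37°C for 7 days.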

[9] = test system: Hemophilus pleuropneumonia (H.pp) M-1; experiment: In vitro sensitivity test (agar dilution method); assay type: cell-based; conditions: 37°C, 20 hours, 10 % CO₂
[10] = test system: Escherichia coli (E.coli) E-17, chicken-origin strain isolated from the field; experiment: In vitro sensitivity test (agar dilution method); assay type: cell-based; conditions: 37°C, 20 to 24 hours
Method in brief: as §2

[11] = test system: Hemophilus paragallinarum (H.pg) 221; experiment: In vitro sensitivity test (agar dilution method); assay type: cell-based; conditions: agar dilution, 37°C, 20 hours, 10 % CO₂
[12] = test system: Escherichia coli (E.coli) JC-2; experiment: In vitro sensitivity test (agar dilution method); assay type: cell-based; conditions: 37°C, 20 to 24 hours
[13] = test system: Hemophilus paragallinarum (H.pg) S-1; experiment: In vitro sensitivity test (agar dilution method); assay type: cell-based; conditions: agar dilution, 37°C, 20 hours, 10 % CO₂
[14] = test system: Bordetella bronchiseptica (B.br) ABU-1; experiment: In vitro sensitivity test (agar dilution method); assay type: cell-based; conditions: 37°C, 20 to 24 hours
TS-resistant MG = experiment: Experimental MG infection to chicken, through injection; assay type: in vivo; conditions: 5 fowl tested, 10-days chicken, 3.1 x 10³ CFU/fowl; for Infectious index Left air sack + (number of fowl) / Infectious index Right air sack + (number of fowl): grade + = slight infection; for Infectious index Left air sack ++ (number of fowl) / Infectious index Right air sack ++ (number of fowl): grade ++ = considerable infection; for Infectious index Left air sack +++ (number of fowl) / Infectious index Right air sack +++ (number of fowl): grade +++ = severe infection; for Infectious index Left air sack - (number of fowl) / Infectious index Right air sack - (number of fowl): grade - = no infection
[15] = test system: Streptococcus sp (Str.sp) SNO6119; experiment: In vitro sensitivity test; assay type: cell-based; conditions: 25°C, 40 to 48 hours
[16] = test system: Pasteurella piscicida (P.pis) No. 2; experiment: In vitro sensitivity test; assay type: cell-based; conditions: 25°C, 40 to 48 hours
Method in brief: as §1

N[C@H]1CCC[C@H]2CN(c3c(F)cc4c(=O)c(C(=O)O)cn(C5CC5)c4c3F)CC[C@H]21 (relative stereo) [I-6]
Infectious index Left air sack + ([1]; oral 3.13 mg/kg): 0 | Infectious index Left air sack ++ ([1]; oral 3.13 mg/kg): 0 | Infectious index Left air sack +++ ([1]; oral 3.13 mg/kg): 0 | Infectious index Left air sack - ([1]; oral 3.13 mg/kg): 5 | Infectious index Right air sack + ([1]; oral 3.13 mg/kg): 0 | Infectious index Right air sack ++ ([1]; oral 3.13 mg/kg): 0 | Infectious index Right air sack +++ ([1]; oral 3.13 mg/kg): 0 | Infectious index Right air sack - ([1]; oral 3.13 mg/kg): 5 | Infectious index Left air sack + ([1]; oral 6.25 mg/kg): 1 | Infectious index Left air sack ++ ([1]; oral 6.25 mg/kg): 0 | Infectious index Left air sack +++ ([1]; oral 6.25 mg/kg): 0 | Infectious index Left air sack - ([1]; oral 6.25 mg/kg): 4 | Infectious index Right air sack + ([1]; oral 6.25 mg/kg): 1 | Infectious index Right air sack ++ ([1]; oral 6.25 mg/kg): 4 | Infectious index Right air sack +++ ([1]; oral 6.25 mg/kg): 0 | Infectious index Right air sack - ([1]; oral 6.25 mg/kg): 0 | Infectious index Left air sack + ([1]; oral 12.5 mg/kg): 0 | Infectious index Left air sack ++ ([1]; oral 12.5 mg/kg): 0 | Infectious index Left air sack +++ ([1]; oral 12.5 mg/kg): 0 | Infectious index Left air sack - ([1]; oral 12.5 mg/kg): 5 | Infectious index Right air sack + ([1]; oral 12.5 mg/kg): 0 | Infectious index Right air sack ++ ([1]; oral 12.5 mg/kg): 4 | Infectious index Right air sack +++ ([1]; oral 12.5 mg/kg): 1 | Infectious index Right air sack - ([1]; oral 12.5 mg/kg): 0 | Number of fowl having air sack lesions ([1]; oral 3.13 mg/kg): 0 | Number of fowl having air sack lesions ([1]; oral 6.25 mg/kg): 5 | Number of fowl having air sack lesions ([1]; oral 12.5 mg/kg): 5 | In vitro Sensitivity Test Mh ST-11 [2]: <0.025 µg/mL | In vitro Sensitivity Test MG T-7-T [3]: 0.00625 µg/mL | In vitro Sensitivity Test MS F10-2as [4]: 0.2 µg/ml | In vitro Sensitivity Test MG S6 [5]: 0.00625 µg/mL | In vitro Sensitivity Test MS 1853 [6]: 0.2 µg/mL | In vitro Sensitivity Test S.typhi 13311 [7]: 0.2 µg/mL | In vitro Sensitivity Test S.au 209P [8]: ≦0.0125 µg/ml | In vitro Sensitivity Test H.pp M-1 [9]: 0.2 µg/mL | In vitro Sensitivity Test E.coli E-17 [10]: 0.2 µg/ml | In vitro Sensitivity Test H.pg 221 [11]: >1.56 µg/mL | In vitro Sensitivity Test E.coli JC-2 [12]: 0.1 µg/mL | In vitro Sensitivity Test H.pg S-1 [13]: >1.56 µg/mL | In vitro Sensitivity Test B.br ABU-1 [14]: 3.13 µg/mL | Number of fowl having air sack lesions (TS-resistant MG; Dose 1.56 mg/kg): 0 | Infectious index Left air sack + (number of fowl) (TS-resistant MG; Dose 1.56 mg/kg): 0 | Infectious index Right air sack + (number of fowl) (TS-resistant MG; Dose 1.56 mg/kg): 0 | Infectious index Left air sack ++ (number of fowl) (TS-resistant MG; Dose 1.56 mg/kg): 0 | Infectious index Right air sack ++ (number of fowl) (TS-resistant MG; Dose 1.56 mg/kg): 0 | Infectious index Left air sack +++ (number of fowl) (TS-resistant MG; Dose 1.56 mg/kg): 0 | Infectious index Right air sack +++ (number of fowl) (TS-resistant MG; Dose 1.56 mg/kg): 0 | Infectious index Left air sack - (number of fowl) (TS-resistant MG; Dose 1.56 mg/kg): 5 | Infectious index Right air sack - (number of fowl) (TS-resistant MG; Dose 1.56 mg/kg): 5 | Number of fowl having air sack lesions (TS-resistant MG; Dose 3.13 mg/kg): 0 | Infectious index Left air sack + (number of fowl) (TS-resistant MG; Dose 3.13 mg/kg): 0 | Infectious index Right air sack + (number of fowl) (TS-resistant MG; Dose 3.13 mg/kg): 0 | Infectious index Left air sack ++ (number of fowl) (TS-resistant MG; Dose 3.13 mg/kg): 0 | Infectious index Right air sack ++ (number of fowl) (TS-resistant MG; Dose 3.13 mg/kg): 0 | Infectious index Left air sack +++ (number of fowl) (TS-resistant MG; Dose 3.13 mg/kg): 0 | Infectious index Right air sack +++ (number of fowl) (TS-resistant MG; Dose 3.13 mg/kg): 0 | Infectious index Left air sack - (number of fowl) (TS-resistant MG; Dose 3.13 mg/kg): 5 | Infectious index Right air sack - (number of fowl) (TS-resistant MG; Dose 3.13 mg/kg): 0 | In vitro Sensitivity Test Str.sp SNO6119 [15]: 0.39 µg/mL | In vitro Sensitivity Test P.pis No. 2 [16]: 0.78 µg/mL
